Assay results published in PMC6556873, “Rapid Covalent-Probe Discovery by Electrophile-Fragment Screening” (Journal of the American Chemical Society, 2019).
Where two headings read alike, the source gives them in different places.

How the values were obtained:
BSA = target: T1, BSA (Bos taurus, UniProt P02769); design: Intact protein LC/MS covalent labelling, fragments in pools of five, 200 uM each, 4 °C; conditions: 24 h, 4 °C, pool of five; 200 µM; covalent
T1 construct: gene ALB

NNMT (hNNMT) = target: T2, NNMT (hNNMT) (Homo sapiens, UniProt P40261); design: Intact protein LC/MS covalent labelling, fragments in pools of five, 200 uM each, 4 °C; conditions: 24 h, 4 °C, pool of five; 200 µM; covalent
T2 construct: wild type, N-terminal His6 tag kept (no cleavage described), E. coli, construct 31248 Da
T2 sequence (P40261 1-264): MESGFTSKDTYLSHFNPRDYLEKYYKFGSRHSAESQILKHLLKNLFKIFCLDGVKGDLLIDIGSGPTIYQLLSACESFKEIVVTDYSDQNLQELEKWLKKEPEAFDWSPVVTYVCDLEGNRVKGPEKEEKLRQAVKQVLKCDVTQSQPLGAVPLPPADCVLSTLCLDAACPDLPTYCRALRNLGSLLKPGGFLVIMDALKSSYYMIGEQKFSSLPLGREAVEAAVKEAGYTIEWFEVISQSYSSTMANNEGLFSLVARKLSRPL

NUDT7 = target: T3, NUDT7 (Homo sapiens, UniProt P0C024); design: Intact protein LC/MS covalent labelling, fragments in pools of five, 200 uM each, 4 °C; conditions: 24 h, 4 °C, pool of five; 200 µM; covalent
T3 construct: residues 14-235, E. coli, pNIC28-Bsa4, N-terminal His6 tag removed by TEV, construct 26672 Da
T3 sequence (P0C024 14-235): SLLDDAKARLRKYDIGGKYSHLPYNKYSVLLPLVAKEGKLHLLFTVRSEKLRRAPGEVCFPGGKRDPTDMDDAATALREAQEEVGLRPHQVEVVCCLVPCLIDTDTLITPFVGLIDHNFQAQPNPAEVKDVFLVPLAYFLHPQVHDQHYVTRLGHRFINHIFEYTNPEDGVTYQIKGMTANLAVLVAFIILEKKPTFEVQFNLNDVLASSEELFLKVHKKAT

OTUB2 (OTUB2A) = target: T4, OTUB2 (OTUB2A) (Homo sapiens, UniProt Q96DC9); design: Intact protein LC/MS covalent labelling, fragments in pools of five, 200 uM each, 4 °C; conditions: 24 h, 4 °C, pool of five; 200 µM; covalent
T4 construct: full length residues 1-234, E. coli BL21(DE3)-R3, His tag removed by TEV, construct 27312 Da
T4 sequence (Q96DC9 1-234): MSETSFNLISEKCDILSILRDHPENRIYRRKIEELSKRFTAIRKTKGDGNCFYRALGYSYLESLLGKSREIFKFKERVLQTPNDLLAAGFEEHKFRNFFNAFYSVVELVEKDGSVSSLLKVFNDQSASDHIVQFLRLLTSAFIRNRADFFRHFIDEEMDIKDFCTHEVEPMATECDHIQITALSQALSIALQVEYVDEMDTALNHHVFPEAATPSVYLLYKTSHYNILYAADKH

PCAF = target: T5, PCAF (Homo sapiens, UniProt Q92831); design: Intact protein LC/MS covalent labelling, fragments in pools of five, 200 uM each, 4 °C; conditions: 24 h, 4 °C, pool of five; 200 µM; covalent
T5 construct: gene KAT2B
T5 sequence (Q92831 whole entry, the tested form may be a part): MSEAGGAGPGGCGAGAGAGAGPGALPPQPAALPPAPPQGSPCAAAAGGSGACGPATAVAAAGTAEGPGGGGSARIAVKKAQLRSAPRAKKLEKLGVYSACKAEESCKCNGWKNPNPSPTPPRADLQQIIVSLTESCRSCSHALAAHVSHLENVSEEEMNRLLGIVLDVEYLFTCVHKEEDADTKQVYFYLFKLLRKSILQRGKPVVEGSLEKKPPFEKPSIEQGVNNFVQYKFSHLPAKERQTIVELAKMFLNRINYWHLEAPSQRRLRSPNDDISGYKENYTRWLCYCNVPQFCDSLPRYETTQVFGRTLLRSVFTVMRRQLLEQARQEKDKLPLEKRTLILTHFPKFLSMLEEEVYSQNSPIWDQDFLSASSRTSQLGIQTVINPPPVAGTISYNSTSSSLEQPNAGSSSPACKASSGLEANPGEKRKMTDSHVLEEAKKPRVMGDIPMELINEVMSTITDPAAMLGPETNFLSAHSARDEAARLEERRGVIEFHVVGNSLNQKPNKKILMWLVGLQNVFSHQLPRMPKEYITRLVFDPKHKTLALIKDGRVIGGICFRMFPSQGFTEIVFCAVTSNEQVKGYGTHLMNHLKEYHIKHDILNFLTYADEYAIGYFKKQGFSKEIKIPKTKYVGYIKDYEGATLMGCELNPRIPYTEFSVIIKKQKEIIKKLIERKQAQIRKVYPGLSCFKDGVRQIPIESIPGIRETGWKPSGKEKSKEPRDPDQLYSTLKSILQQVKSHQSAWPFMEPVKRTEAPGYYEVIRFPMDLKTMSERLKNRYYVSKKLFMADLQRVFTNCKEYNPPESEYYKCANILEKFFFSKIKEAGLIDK

in vitro [1] = assay: in vitro; design: species or system CCD841, HEK293; conditions: human, hb2 cells, read-out: HB-2 Cells Viability (%)
in vitro [2] = assay: in vitro; design: species or system HB2, HEK293; conditions: human, ccd841 cells
in vitro [3] = assay: in vitro; design: species or system HB2, CCD841; conditions: human, hek293 cells

T1 sequence (P02769 whole entry, the tested form may be a part): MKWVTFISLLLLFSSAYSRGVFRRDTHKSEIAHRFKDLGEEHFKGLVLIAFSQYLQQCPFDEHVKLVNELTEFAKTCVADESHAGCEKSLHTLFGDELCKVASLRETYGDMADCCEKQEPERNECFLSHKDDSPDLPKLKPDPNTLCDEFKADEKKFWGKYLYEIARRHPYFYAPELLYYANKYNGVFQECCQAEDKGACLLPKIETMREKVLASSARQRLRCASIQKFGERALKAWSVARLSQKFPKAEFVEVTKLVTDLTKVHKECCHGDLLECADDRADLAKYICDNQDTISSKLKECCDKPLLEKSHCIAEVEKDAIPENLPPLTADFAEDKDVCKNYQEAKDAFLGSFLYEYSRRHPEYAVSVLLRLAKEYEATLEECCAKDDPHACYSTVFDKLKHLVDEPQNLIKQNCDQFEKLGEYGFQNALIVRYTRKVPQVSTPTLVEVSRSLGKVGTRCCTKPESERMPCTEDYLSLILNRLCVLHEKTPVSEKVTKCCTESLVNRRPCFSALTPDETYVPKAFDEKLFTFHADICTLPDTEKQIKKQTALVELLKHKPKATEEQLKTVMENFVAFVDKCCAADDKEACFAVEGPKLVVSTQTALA

Structure (SMILES)	BSA (BSA)	NNMT (NNMT (hNNMT))	NUDT7 (NUDT7)	OTUB2 (OTUB2 (OTUB2A))	PCAF (PCAF)	viability at 48 h, 10 µM (in vitro [1])	viability at 48 h, 10 µM (in vitro [2])	viability at 48 h, 10 µM (in vitro [3])
O=C(CCl)NNC(=O)c1ccc([N+](=O)[O-])cc1 [PCM-0102885]	0	0	0	0.21	0	91%	83.3%	92.9%
Cl.O=C(CCl)N1CCN(Cc2ccc3c(c2)OCO3)CC1 [PCM-0102397]	0	0	0	0	0	20.7%	67.3%	31.7%
C=CC(=O)N1CC(c2ccccc2)C2COCCC21 (stereo not shown) [PCM-0102687]	0	0	0	0	0	103%	105%	114%
Cc1ccccc1CC(=O)NNC(=O)CCl [PCM-0102829]	0	0	0	0.3	0	90.9%	83.9%	104%
O=C(CCl)N1CCOCC1 [PCM-0102749]	0	0	0	0	0	98.7%	109%	97.6%
O=C(CCl)Nc1ccc(F)cc1 [PCM-0103002]	0	0	0	0.3	0	68.5%	71.8%	35.5%
O=C(CCl)Nc1nc(-c2cccs2)cs1 [PCM-0102784]	0	0.71	0.77	0.07	0	39.8%	84.9%	41.3%
Cc1ccccc1CN(C)C(=O)CCl [PCM-0102707]	0	0.13	0.13	0	0	7.9%	57%	11.6%
O=C(CCl)Nc1cc2ccccc2cc1C(=O)O [PCM-0102311]	0	0.2	0.17	0.1	0	105%	100%	109%
C#Cc1cccc(NC(=O)NC(=O)CCl)c1 [PCM-0102813]	0	0	0.13	0.14	0	74.1%	82.2%	73.2%
C=CC(=O)NCC1(O)CCCC(C(F)(F)F)C1 (stereo not shown) [PCM-0102720]	0	0	0	0.08	0	93.2%	107%	106%
CNC(=O)NC(=O)CCl [PCM-0102534]	0	0	0	0	0	97.9%	94.3%	92.2%
COc1ccc(Cl)cc1NC(=O)CCl [PCM-0102370]	0	0	0.23	0.18	0	3.7%	34.6%	3.3%
C=CC(=O)N1CC(=O)NC2CCCCC21 (stereo not shown) [PCM-0102717]	0	0	0	0	0	100%	105%	112%
CCc1nnc(NC(=O)CCl)s1 [PCM-0102166]	0	0.42	0.21	0	0	94.5%	92.5%	95.8%
Cc1ccc([N+](=O)[O-])c(NC(=O)CCl)c1C [PCM-0102511]	0	0	0.15	0.07	0	91.5%	75.4%	56.3%
O=C(CCl)NC1C2CC3CC(C2)CC1C3 (stereo not shown) [PCM-0102404]	0	0	0	0.33	0	63.3%	68.9%	90.6%
CCc1sc(C(=O)NNC(=O)CCl)cc1C [PCM-0103009]	0	0	0	1	0	70.4%	68.3%	73.2%
CN(C)C(=O)CNC(=O)CCl [PCM-0102365]	0	0	0	0	0	103%	100%	95.6%
C=CC(=O)NCC1=CS(=O)(=O)c2ccccc21 [PCM-0102563]	0	0.07	0	0.04	0	102%	110%	82.9%
